Measured values reported in patent US20240425484A1, “INHIBITORS OF TYK2” (Atomwise Inc., priority 2023, published 2024).

Key:
[1] = Mouse pharmacokinetic study, oral administration; assay type: in vivo; details: male, mouse plasma, PO at 5 mg/kg
Description: The following example describes the methods used to evaluate the pharmacokinetics of TYK2 inhibitors in vivo following dosing of a compound of the invention.
The pharmacokinetics of test compounds were evaluated in either male CD-1 mice or male C57BL/6 mice when administered by oral gavage and IV bolus injection. The animals were allowed free access to food and water before administration. The plasma samples were analyzed by LC-MS/MS and the concentration of test compound at each time point was determined by linear regression. Pharmacokinetic parameters were calculated from the plasma concentrations by non-compartmental modeling using WinNonlin 8.2.
Oral composition. To prepare a pharmaceutical composition for oral delivery, the test articles described herein were dissolved in DMSO and then mixed with necessary volume of PEG400 followed by 0.9% sterile saline or 5% dextrose in water or 5% Kolliphor HS 15 in saline to provide the final concentrations of 0.5 mg/mL or 1 mg/mL (Table 8). The resultant mixtures were suitable for oral administration.
The PK parameters measured in mouse plasma after treatment with TYK2 inhibitor compounds via PO (oral administration) at 5 mg/kg are summarized below in Tables 9-11.

TYK2-JH2 = biological target: T1, TYK2-JH2 (Homo sapiens, UniProt P29597); test: TYK2-JH2 HTRF binding assay (ligand efficiency); details: calculated (Equation 1) from IC50 of the TYK-JH2 binding assay
T1 construct: TYK JH2 enzyme mix (ChemPartner: CP20210818A-BV); purchased ChemPartner CP20210818A-BV
Description: The following example describes the TYK2-JH2 HTRF binding assay used to determine the ligand efficiency of the TYK2 inhibitors.
To calculate ligand efficiency, Equation 1 is applied: […]
in which IC50 comes from the binding assay used to determine compound potency.
TYK JH2 enzyme mix (ChemPartner: CP20210818A-BV), tracer (ChemPartner: CP-0029472-051) and mAb Anti-6HIS Tb cryptate Gold (Cisbio: Cat No. 61HI2TLA) mix were prepared in assay buffer (10 mM MgCl2, 20 mM HEPES pH 7.5, 0.01% Triton X-100, 1 mM DTT). Compounds diluted in DMSO (Final Concentrations 0.1 to 0.000005 [μM]) and enzyme mix (0.5 nM Final Concentration) were added to 384 well plates, briefly centrifuged and incubated at room temperature for 10 minutes. After incubation, tracer mix (Tracer-35 nM final concentration); (MAb Anti-6HIS Tb cryptate Gold-0.5X final)) was added, briefly centrifuged then incubate at room temperature 60 minutes. After incubation, plates were read by Envision TR-FRET (Ex340/Em495/520) protocol (PerkinElmer-Envision 2104 multilabel plate reader).

T1 sequence (P29597 589-875 limits assumed): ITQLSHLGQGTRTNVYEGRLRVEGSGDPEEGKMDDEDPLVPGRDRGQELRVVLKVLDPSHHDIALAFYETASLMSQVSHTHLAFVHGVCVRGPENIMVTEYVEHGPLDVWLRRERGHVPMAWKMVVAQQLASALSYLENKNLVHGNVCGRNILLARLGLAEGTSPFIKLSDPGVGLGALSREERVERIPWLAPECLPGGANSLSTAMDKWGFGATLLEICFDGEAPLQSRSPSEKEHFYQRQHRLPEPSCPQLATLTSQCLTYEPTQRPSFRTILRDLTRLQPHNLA

CS(=O)(=O)c1cccnc1Nc1cc(Nc2ccc3c(n2)CCCC3N2CC3(COC3)C2)ncn1 (stereo in doubt) [Compound 5, (R)—N^4-(5-(2-oxa-6-azaspiro[3.3]heptan-6-yl)-5,6,7,8-tetrahydroquinolin-2-yl)-N^6-(3-(methylsulfonyl)pyridin-2-yl)pyrimidine-4,6-diamine]
half-life ([1]; read-out: Half-life t1/2): > 1.5 h
Cmax ([1]; read-out: Maximum plasma concentration Cmax): > 1500 ng/mL
AUC(0-inf) ([1]; read-out: Total systemic exposure AUCinf): > 2000 ng·h/mL

CC1(Nc2ccc(Nc3cc(Nc4ncccc4S(C)(=O)=O)ncn3)nc2)COC1 [Compound 21, N^4-(5-((3-methyloxetan-3-yl)amino)pyridin-2-yl)-N^6-(3-(methylsulfonyl)pyridin-2-yl)pyrimidine-4,6-diamine]
Ligand Efficiency (TYK2-JH2): ††† (†††: >0.39)

C[C@@H](c1ccc(Nc2cc(Nc3ncccc3S(C)(=O)=O)ncn2)nc1)N1CC2(CCOC2)C1 [Compound 32, (S)—N^4-(5-(1-(6-oxa-2-azaspiro[3.4]octan-2-yl)ethyl)pyridin-2-yl)-N^6-(3-(methylsulfonyl)pyridin-2-yl)pyrimidine-4,6-diamine]
Ligand Efficiency (TYK2-JH2): ††† (†††: >0.39)

CC1(Nc2ccc(Nc3cc(Nc4ncccc4S(C)(=N)=O)ncn3)nc2)COC1 (centres unmarked) [Compound 73, N^4-(5-((3-methyloxetan-3-yl)amino)pyridin-2-yl)-N^6-(3-(S-methylsulfonimidoyl)pyridin-2-yl)pyrimidine-4,6-diamine]
Ligand Efficiency (TYK2-JH2): ††† (†††: >0.39)

CC1(CNc2ccc(Nc3cc(Nc4ncccc4S(C)(=O)=O)ncn3)nc2)COC1 [Compound 36, N^4-(5-(((3-methyloxetan-3-yl)methyl)amino)pyridin-2-yl)-N^6-(3-(methylsulfonyl)pyridin-2-yl)pyrimidine-4,6-diamine]
Ligand Efficiency (TYK2-JH2): ††† (†††: >0.39)

CS(=O)(=O)c1cccnc1Nc1cc(Nc2cccc(C(F)(F)F)n2)ncn1 [Compound 19, N^4-(3-(methylsulfonyl)pyridin-2-yl)-N^6-(6-(trifluoromethyl)pyridin-2-yl)pyrimidine-4,6-diamine]
Ligand Efficiency (TYK2-JH2): ††† (†††: >0.39)

CC1(Nc2cnc(Nc3cc(Nc4ncccc4S(C)(=O)=O)ncn3)cn2)COC1 [Compound 74, N^4-(5-(3-methyloxetan-3-ylamino)pyrazin-2-yl)-N^6-(3-(methylsulfonyl)pyridin-2-yl)pyrimidine-4,6-diamine]
Ligand Efficiency (TYK2-JH2): ††† (†††: >0.39)

Cc1cccc(Nc2cc(Nc3cnccc3C(N)=O)ncn2)n1 [Compound 61, 3-((6-((6-methylpyridin-2-yl)amino)pyrimidin-4-yl)amino) isonicotinamide]
Ligand Efficiency (TYK2-JH2): ††† (†††: >0.39)

CS(=O)(=O)c1cccnc1Nc1cc(Nc2ccc(NC3CC(F)(F)C3)cn2)ncn1 [Compound 37, N^4-(5-(3,3-difluorocyclobutylamino)pyridin-2-yl)-N^6-(3-(methylsulfonyl)pyridin-2-yl)pyrimidine-4,6-diamine]
Ligand Efficiency (TYK2-JH2): ††† (†††: >0.39)

Cc1cncc(Nc2cc(Nc3ccccc3C(N)=O)ncn2)n1 [Compound 49, 2-(6-(6-methylpyrazin-2-ylamino)pyrimidin-4-ylamino)benzamide]
Ligand Efficiency (TYK2-JH2): ††† (†††: >0.39)

Cn1ccc(Nc2cc(Nc3ccccc3S(C)(=O)=O)ncn2)n1 [Compound 66, N^4-(1-methyl-1H-pyrazol-3-yl)-N^6-(2-(methylsulfonyl)phenyl)pyrimidine-4,6-diamine]
Ligand Efficiency (TYK2-JH2): ††† (†††: >0.39)

CS(=O)(=O)c1ccccc1Nc1cc(Nc2ccc(N3CCOCC3)cn2)ncn1 [Compound 42, N^4-(2-(methylsulfonyl)phenyl)-N^6-(5-morpholinopyridin-2-yl)pyrimidine-4,6-diamine]
Ligand Efficiency (TYK2-JH2): ††† (†††: >0.39)

Cc1ccnc(Nc2cc(Nc3ccccc3P(C)(C)=O)ncn2)c1 [Compound 63, N^4-(2-(dimethylphosphoryl)phenyl)-N^6-(4-methylpyridin-2-yl)pyrimidine-4,6-diamine]
Ligand Efficiency (TYK2-JH2): ††† (†††: >0.39)

Cc1ccnc(Nc2cc(Nc3ccccc3C(N)=O)ncn2)c1 [Compound 45, 2-((6-((4-methylpyridin-2-yl)amino)pyrimidin-4-yl)amino)benzamide]
Ligand Efficiency (TYK2-JH2): ††† (†††: >0.39)

C[C@@H](c1ccc(Nc2cc(Nc3ncccc3S(C)(=O)=O)ncn2)nc1)N1C[C@H]2COC[C@H]2C1 [Compound 25, N^4-(3-(methylsulfonyl)pyridin-2-yl)-N^6-(5-(1-((3aR,6aS)-tetrahydro-1H-furo[3,4-c]pyrrol-5 (3H)-yl)ethyl)pyridin-2-yl)pyrimidine-4,6-diamine]
Ligand Efficiency (TYK2-JH2): ††† (†††: >0.39)

Cn1cc(-c2ccnc(Nc3cc(Nc4ccc(NC5(C)COC5)cn4)ncn3)c2S(C)(=O)=O)cn1 [Compound 72, N^4-(4-(1-methyl-1H-pyrazol-4-yl)-3-(methylsulfonyl)pyridin-2-yl)-N^6-(5-(3-methyloxetan-3-ylamino)pyridin-2-yl)pyrimidine-4,6-diamine]
Ligand Efficiency (TYK2-JH2): † (†: <0.37)

C[C@H]1CN(C)CCN1c1ccc(Nc2cc(Nc3ncccc3S(C)(=O)=O)ncn2)nc1 [Compound 20, (S)—N^4-(5-(2,4-dimethylpiperazin-1-yl)pyridin-2-yl)-N^6-(3-(methylsulfonyl)pyridin-2-yl)pyrimidine-4,6-diamine]
Ligand Efficiency (TYK2-JH2): ††† (†††: >0.39)

CS(=O)(=O)c1cccnc1Nc1cc(Nc2ncccc2F)ncn1 [Compound 64, N^4-(3-fluoropyridin-2-yl)-N^6-(3-(methylsulfonyl)pyridin-2-yl)pyrimidine-4,6-diamine]
Ligand Efficiency (TYK2-JH2): ††† (†††: >0.39)

CC(c1ccc(Nc2cc(Nc3ncc(C4COC4)cc3S(C)(=O)=O)ncn2)nc1)N1CC2(COC2)C1 (centres unmarked) [Compound 78, N^4-(5-(1-(2-oxa-6-azaspiro[3.3]heptan-6-yl)ethyl)pyridin-2-yl)-N^6-(3-(methylsulfonyl)-5-(oxetan-3-yl)pyridin-2-yl)pyrimidine-4,6-diamine]
Ligand Efficiency (TYK2-JH2): † (†: <0.37)

CC(c1ccc(Nc2cc(Nc3ncccc3S(C)(=O)=O)ncn2)nc1)N1CCCC1 (stereo in doubt) [Compound 15, (R)—N^4-(3-(methylsulfonyl)pyridin-2-yl)-N^6-(5-(1-(pyrrolidin-1-yl)ethyl)pyridin-2-yl)pyrimidine-4,6-diamine]
Ligand Efficiency (TYK2-JH2): ††† (†††: >0.39)

CC(c1ccc(Nc2cc(Nc3ncccc3S(C)(=O)=O)ncn2)nc1)N1CC(F)C1 (centres unmarked) [Compound 22, N^4-(5-(1-(3-fluoroazetidin-1-yl)ethyl)pyridin-2-yl)-N^6-(3-(methylsulfonyl)pyridin-2-yl)pyrimidine-4,6-diamine]
Ligand Efficiency (TYK2-JH2): ††† (†††: >0.39)

CS(=O)(=O)c1cccnc1Nc1cc(Nc2ccc(N3CCN(C4CC4)CC3)cn2)ncn1 [Compound 7, N^4-(5-(4-cyclopropylpiperazin-1-yl)pyridin-2-yl)-N^6-(3-(methylsulfonyl)pyridin-2-yl)pyrimidine-4,6-diamine]
Ligand Efficiency (TYK2-JH2): ††† (†††: >0.39)

Cc1cccc(Nc2cc(Nc3cccnc3C(N)=O)ncn2)n1 [Compound 50, 3-((6-((6-methylpyridin-2-yl)amino)pyrimidin-4-yl)amino) picolinamide]
Ligand Efficiency (TYK2-JH2): ††† (†††: >0.39)

Cc1cc(Nc2cc(Nc3ncccc3S(C)(=O)=O)ncn2)ncc1NC1(C)COC1 [Compound 23, N^4-(4-methyl-5-((3-methyloxetan-3-yl)amino)pyridin-2-yl)-N^6-(3-(methylsulfonyl)pyridin-2-yl)pyrimidine-4,6-diamine]
Ligand Efficiency (TYK2-JH2): ††† (†††: >0.39)

Cc1cccc(Nc2cc(Nc3ccncc3S(C)(=O)=O)ncn2)n1 [Compound 60, N^4-(6-methylpyridin-2-yl)-N^6-(3-(methylsulfonyl)pyridin-4-yl)pyrimidine-4,6-diamine]
Ligand Efficiency (TYK2-JH2): ††† (†††: >0.39)

COc1ccnc(Nc2cc(Nc3ccc(C(C)N4CC5(COC5)C4)cn3)ncn2)c1S(C)(=O)=O (centres unmarked) [Compound 76, N^4-(5-(1-(2-oxa-6-azaspiro[3.3]heptan-6-yl)ethyl)pyridin-2-yl)-N^6-(4-methoxy-3-(methylsulfonyl)pyridin-2-yl)pyrimidine-4,6-diamine]
Ligand Efficiency (TYK2-JH2): † (†: <0.37)

Cc1cccc(Nc2cc(Nc3ncccc3C(N)=O)ncn2)n1 [Compound 52, 2-((6-((6-methylpyridin-2-yl)amino)pyrimidin-4-yl)amino) nicotinamide]
Ligand Efficiency (TYK2-JH2): ††† (†††: >0.39)
